These results are taken from patent US12538923B2, “Herbicidal compositions comprising imazethapyr” (BASF SE, priority 2024, dated 2026).

What all share (format): in vivo
The test system of test [1] is Amaranthus viridis (AMAVI). Kind of test: Post-emergence field trial, herbicidal activity on AMAVI. To be noted: growth stage 16-18, height 10-15 cm, 20 DAT, 0.5% MSO. As for the experimental part: (§1) In the examples below, using the method of S. R. Colby (1967) “Calculating synergistic and antagonistic responses of herbicide combinations”, Weeds 15, p. 22ff., the value E, which is expected if the activity of the individual active compounds is only additive, was calculated:
(§2) [formula] • where • X=percent activity using active herbicide A at an application rate a; • Y=percent activity using active herbicide B (e.g. imazethapyr) at an application rate b; • E=expected activity (in %) by A+B at application rates a+b.
(§3) If the value found experimentally is higher than the value E calculated according to Colby, a synergistic effect is present.
(§4) On field test sites, natural weed infestation or seeded weeds were treated post-emergence of the weeds.
(§5) In the field trials, the weeds were treated as indicated below.
(§6) In the following experiments, the herbicidal activity for the individual herbicidal compositions (solo and mixture applications) was assessed at the indicated days after treatment (DAT). The assessments for the damage on undesired weeds caused by the composition was carried out using a scale from 0 to 100%, compared to the untreated control plants. Here, 0 means no damage and 100 means complete destruction of the plants.
(§7) Herbicide A-1 (342 g/l) and imazethapyr-ammonium were, together with addition of 0.5% MSO (methylated seed oil) as adjuvant, formulated in water as distribution medium (water volume […]) and sprayed with commercial flat fan nozzles.

Test [2] relates to Brachiaria plantaginea (BRAPL). Kind of test: Post-emergence field trial, herbicidal activity on BRAPL. To be noted: for % herbicidal activity: Table 2.5, 21 DAT, growth stage 24. As for the experimental part:
as §1, §2, §3, §4, §5, §6, §7

Test [3] has as its system Portulaca oleracea (POROL). Kind of test: Post-emergence field trial, herbicidal activity on POROL. To be noted: growth stage 14-16, height 5-10 cm, 20 DAT, 0.5% MSO. As for the experimental part:
as §1, §2, §3, §4, §5
(§8) In the following experiments, the herbicidal activity for the individual herbicidal compositions (solo and mixture applications) was assessed at the indicated days after treatment (DAT). The assessments for the damage on undesired weeds caused by the composition was carried out using a scale from 0 to 100%, compared to the untreated control plants. Here, 0 means no damage and 100 means complete destruction of the plants. […]

For test [4], the system named is Amaranthus cruentus (AMACR). Nature of the test: Post-emergence field trial, herbicidal activity on AMACR. To be noted: height 20-25 cm, 25 DAT, 0.25 l/ha Dash MSO Max. As for the experimental part:
as §1, §2, §3, §4, §5, §8

Test [5] deals with Galinsoga parviflora (GASPA). Nature of the test: Post-emergence field trial, herbicidal activity on GASPA. To be noted: Table 2.6, 21 DAT, weed height 15-35 cm. As for the experimental part: as §1, §2, §3, §4, §5, §8
Test [6] relates to Spermacoce latifolia (BOILF). Nature of the test: Post-emergence field trial, herbicidal activity on BOILF. The following applies: 21 DAT. As for the experimental part: as §1, §2, §3, §4, §5, §6, §7
Test [7] deals with Digitaria insularis (DIGIN). Nature of the test: Post-emergence field trial, herbicidal activity on DIGIN. The following applies: Table 2.4, 21 DAT, weed height 20-40 cm. As for the experimental part:
as §1, §2, §3, §4, §5, §8

Test [8] has as its system Euphorbia heterophylla (EPHHL). Kind of test: Post-emergence field trial, herbicidal activity on EPHHL. To be noted: 21 DAT. As for the experimental part:
as §1, §2, §3, §4, §5, §6, §7

The test system of test [9] is Amaranthus hybridus (AMACH). Nature of the test: Post-emergence field trial, herbicidal activity on AMACH. As for the experimental part: as §1, §2, §3, §4, §5, §6
Herbicide A-1 (342 g/I) and imazethapyr-ammonium were, together with addition of 0.25 l/ha Dash® MSO Max as adjuvant, formulated in water as distribution medium (water volume 200 l/ha) and sprayed with commercial flat fan nozzles.

Test [10] deals with Digitaria horizontalis (DIGHO). Nature of the test: Post-emergence field trial, herbicidal activity on DIGHO. The following applies: Table 2.5, 21 DAT, growth stage 24. As for the experimental part: as §1, §2, §3, §4, §5, §8
For test [11], the system named is Eleusine indica (ELEIN). Nature of the test: Post-emergence field trial, herbicidal activity on ELEIN. The following applies: 21 DAT. As for the experimental part: as §1, §2, §3, §4, §5, §6, §7
Test [12] concerns Ipomoea triloba (IPOTR). Nature of the test: Post-emergence field trial, herbicidal activity on IPOTR. The following applies: 21 DAT. As for the experimental part: as §1, §2, §3, §4, §5, §6, §7

Take `CCOC(=O)COc1ccccc1Oc1nc(-n2c(=O)cc(C(F)(F)F)n(C)c2=O)c(F)cc1Cl` [Herbicide A-1, ethyl 2-[2-[[3-chloro-5-fluoro-6-[3-methyl-2,6-dioxo-4-(trifluoromethyl)pyrimidin-1-yl]-2-pyridyl]oxy]phenoxy]acetate]: the “% herbicidal activity A-1” value stood at 69% in [1] (A-1 25 g ai/ha solo); 84% in test [1] (A-1 50 g ai/ha solo); 73% in [2] (BRAPL, growth stage 21-25, height 10-15 cm, A-1 50 g ai/ha solo, 20 DAT, 0.5% MSO); 58% in [3] (A-1 50 g ai/ha solo); 93% in test [4] (A-1 25 g ai/ha solo); 81% in test [6] (BOILF, growth stage 40, A-1 25 g ai/ha solo, 0.5% MSO). The “% herbicidal activity A-1” value worked out at 86% in [8] (EPHHL, growth stage 35, A-1 50 g ai/ha solo, 0.5% MSO); 91% in test [9] (AMACH, height 20-25 cm, A-1 25 g ai/ha solo, 25 DAT, 0.25 l/ha Dash MSO Max); 45% in test [11] (ELEIN, height 20-25 cm, A-1 25 g ai/ha solo, 0.5% MSO); 61% in [12] (IPOTR, growth stage 35, A-1 25 g ai/ha solo, 0.5% MSO). Moreover, the “% herbicidal activity” value came out at 83% in test [2] (A-1 25 g ai/ha alone); 93% in test [2] (A-1 50 g ai/ha alone); 92% in [5] (A-1 50 g ai/ha alone); 81% in test [6] (Table 3.1, A-1 25 g ai/ha alone, growth stage 40); 38% in test [7] (A-1 50 g ai/ha alone); 96% in [8] (Table 2.6, A-1 50 g ai/ha alone, weed height 15-35 cm). Besides, the “% herbicidal activity” value in test [8] (Table 2.7, A-1 25 g ai/ha alone, growth stage 18-65, height 5-15 cm) was determined as 94%; in test [9] (Table 3.1, 21 DAT, A-1 50 g ai/ha alone, growth stage 35) it was 85%; in test [10] (A-1 50 g ai/ha alone) it was 50%; in test [11] (Table 2.7, A-1 50 g ai/ha alone, growth stage 35-61, height 3-5 cm), 87%; in test [11] (Table 3.2, A-1 50 g ai/ha alone, weed height 20-25 cm), 55%; in test [12] (Table 3.1, A-1 25 g ai/ha alone, growth stage 35), 61%.
As to `CCc1cnc(C2=NC(C)(C(C)C)C(=O)N2)c(C(=O)O)c1.N` (stereo not drawn) [Herbicide B-2, imazethapyr-ammonium, reference compound], the “% herbicidal activity B-2” value in test [1] (B-2 100 g ai/ha solo) was determined as 22%; in [2] (BRAPL, growth stage 21-25, height 10-15 cm, B-2 100 g ai/ha solo, 20 DAT, 0.5% MSO), 0%; in [3] (B-2 100 g ai/ha solo), 30%; in test [4] (B-2 100 g ai/ha solo), 58%; in test [6] (BOILF, growth stage 40, B-2 100 g ai/ha solo, 0.5% MSO) it was 23%; in test [8] (EPHHL, growth stage 35, B-2 100 g ai/ha solo, 0.5% MSO), 10%. Further, the “% herbicidal activity B-2” value in test [9] (AMACH, height 20-25 cm, B-2 100 g ai/ha solo, 25 DAT, 0.25 l/ha Dash MSO Max) amounted to 7%; in test [11] (ELEIN, height 20-25 cm, B-2 100 g ai/ha solo, 0.5% MSO), 0%; in [12] (IPOTR, growth stage 35, B-2 100 g ai/ha solo, 0.5% MSO), 22%. In addition, the “% herbicidal activity” value in test [2] (B-2 100 g ai/ha alone, listed as with A-1 25 g ai/ha) is 0%; in test [2] (B-2 100 g ai/ha alone, listed as with A-1 50 g ai/ha) it was 0%; in test [5] (B-2 100 g ai/ha alone), 0%; in test [7] (B-2 100 g ai/ha alone), 13%; in test [8] (Table 2.6, B-2 100 g ai/ha alone, weed height 15-35 cm) it was 0%; in [8] (Table 2.7, B-2 100 g ai/ha alone, growth stage 18-65, height 5-15 cm), 20%. Besides, the “% herbicidal activity” value came to 0% in test [10] (B-2 100 g ai/ha alone) and 10% in [11] (Table 2.7, B-2 100 g ai/ha alone, growth stage 35-61, height 3-5 cm).
